{"source": "patent US6599499B1", "about": "“Uses of diterpenoid triepoxides as an anti-proliferative agent” (priority 1999, dated 2003)", "key": {"[1]": {"tested_on": "Dx5 cells", "conditions": "cited from earlier work"}, "[2]": {"tested_on": "H23 human tumor cells", "conditions": "day 14; PG490-88 0.25 mg/kg/day; taxol 10 mg/kg/day; IP", "experimental": "Cell death reagents and assays. Cell viability was measured by an MTT assay as recently described (Lee et al. (1999) J. Biol. Chem. 274:13451-13455. z-VAD-fluoromethylketone (z-VAD.fmk) was obtained from Alexis Biochemicals, San Diego, Calif. The effect of z-VAD.fmk on cell viability was analyzed by annexin and propidium iodide staining followed by FACS analysis according to the manufacturer's protocol (Clontech Laboratories, Palo Alto, Calif.). The analysis of apoptosis in histologic sections was done by terminal deoxynucleotidyl transferase (TdT)-mediated d-UTP nick end labeling (TUNEL) of slides from paraffin sections of day 3 tumors harvested from the mice 24 h after the second of two daily treatments with PG490-88 or saline. TUNEL staining was done according to the manufacturer's protocol (Boehringer Mannheim, Indianapolis, Ind.) and then the histology slides were counterstained with methyl green. DNA was isolated from cells for analysis of internucleosomal DNA laddering followed by agarose gel electrophoresis and ethidium bromide staining.\nNude mouse xenograft model. Female NCr nude mice were purchased from Taconic, Germantown, N.Y., and were generally 20-24 grams when used. Mice were kept in autoclaved filter-top microisolator cages with autoclaved water and sterile food ad lib. The cages were maintained in an isolator unit providing filtered air (Lab Products, Inc., Maywood, N.J.). Tumor cells were grown and harvested as described above. NCr nude mice were injected intradermally with 5×10^6 tumor cells. In some experiments, treatment was initiated on the day of tumor cell implantation. […] Mice were treated IP daily for 5 days per week.\nH23 tumor cells were implanted intradermally in nude mice. When the tumors reached approximately 100 mm^3, daily IP treatment with PG490-88 was initiated. […] The data in FIG. 3 represents the measurement of H23 tumor volume on day 14 after the initiation of treatment. Nude mice bearing xenografts of H23 human tumor cells were treated daily as shown. The data represent the means and the standard errors of the means of the tumor volumes as percent of the day 0 tumor volumes for each animal measured day 3, 6, 10 and 14 days after the initiation of treatment. There were 5 mice per group."}, "[3]": {"tested_on": "HT-29 human colon cancer cell line tumors", "experiment": "Nude mouse xenograft, established HT-29 colon cancer tumors", "format": "in vivo, nude mice", "experimental": "HT-29 tumor cells grown in tissue culture were harvested and implanted intradermally on the backs of nude mice. Tumor size was monitored by measuring the dimensions of each tumor and calculating tumor volume with a formula. […] PG490-88 treatment at 0.25 mg/kg was administered daily i.p. 5 days per week for 2 weeks. Navelbine at 10 mg/kg was given i.v. on days 0 and 7. Mice in the combination treatment group received PG490-88 i.p. and Navelbine i.v. at the appropriate times. The treatments were given to mice at 100 μl per 10 g of mouse body weight. Tumor dimensions were measured periodically for calculation of tumor volumes. […] The data are presented as mean percent change in tumor volume from day 0 for each treatment group. Toxicity of the treatment was monitored by weighing the mice daily 5 days per week. In FIG. 8, a comparison is provided for tumor volumes on Days 0 and 14. Tumor dimensions were measured periodically for calculation of tumor volumes, and the final determinations were made on day 14."}, "[4]": {"tested_on": "HT1080 cells", "experiment": "Apoptosis by Annexin V and Propidium Iodide staining, HT1080 cells", "format": "cell-based, human", "design": "unit of the concentration uncertain", "conditions": "HT1080, 20 h, PG490 pretreatment 4 h then CPT-11 16 h", "experimental": "HT1080 cells were treated as shown and harvested for analysis of apoptosis by Annexin V and Propidium Iodide staining 20 h after treatment. In experiments with a combination of PG490 and CPT-11, cells were pretreated with PG490 for 4 h followed by the addition of CPT-11 for 16 h."}, "[5]": {"tested_on": "HT1080 tumor cells", "experiment": "Nude mouse xenograft, established HT1080 tumors", "format": "in vivo, nude mice", "conditions": "PG490-88 0.75 mg/kg IP days 0-5 and 7-11, CPT-11 11 mg/kg IV days 1, 5, 9", "experimental": "Mice. […] Nude mouse xenograft model. HT1080 tumor cells were grown in tissue culture flasks and harvested using EDTA and trypsin. Cells were centrifuged and the concentration of viable cells was appropriately adjusted. […] Tumor size was monitored after tumor cell implantation by measuring the width, length and thickness of the tumors and using a formula to calculate the volume. […] Control mice were left untreated. […] Combination therapy mice received both PG490-88 and CPT-11 treatments."}}, "data": [{"smiles": "CC(=O)O[C@H]1C(=O)[C@@]2(C)[C@H]([C@H](OC(=O)c3ccccc3)[C@]3(O)C[C@H](OC(=O)[C@H](O)[C@@H](NC(=O)c4ccccc4)c4ccccc4)C(C)=C1C3(C)C)[C@]1(OC(C)=O)CO[C@@H]1C[C@@H]2O", "note": "[taxol, reference compound]", "values": [{"measurement": "fold more resistant than the MES-SA parent cell line", "setting": "[1]", "result": 1000, "unit": "fold"}, {"measurement": "tumor volume as % of the vehicle control", "setting": "[2]", "result": 42, "unit": "%"}]}, {"smiles": "CCC1=C[C@@H]2CN(C1)Cc1c([nH]c3ccccc13)[C@@](C(=O)OC)(c1cc3c(cc1OC)N(C)[C@H]1[C@@](O)(C(=O)OC)[C@H](OC(C)=O)[C@]4(CC)C=CCN5CC[C@]31[C@@H]54)C2", "note": "[Navelbine, vinorelbine, reference compound]", "values": [{"measurement": "increase in tumor volume from day 0 by day 14", "setting": "[3]; PG490-88 0.25 mg/kg i.p. 5 days per week for 2 weeks, Navelbine 10 mg/kg i.v. days 0 and 7", "result": 343, "unit": "%"}, {"measurement": "Day 0 Tumor Volume (mm^3) Mean", "setting": "[3]; baseline at grouping, before treatment", "result": 109, "unit": "mm^3"}]}, {"smiles": "CCc1c2c(nc3ccc(OC(=O)N4CCC(N5CCCCC5)CC4)cc13)-c1cc3c(c(=O)n1C2)COC(=O)[C@]3(O)CC", "note": "[CPT-11, irinotecan, reference compound]", "values": [{"measurement": "Apoptotic Cells (%)", "setting": "[4]; CPT-11 (10 µM) alone, (10 μM) in combination with PG490 5 ng/ml", "result": 5, "unit": "%"}, {"measurement": "Apoptotic Cells (%)", "setting": "[4]; PG490 5 ng/ml, CPT-11 (5 µM) alone, (5 μM) in combination", "result": 0, "unit": "%"}, {"measurement": "TV Mean Day 4", "setting": "[5]", "result": 157}, {"measurement": "TV Mean Day 7", "setting": "[5]", "result": 209}, {"measurement": "TV Mean Day 10", "setting": "[5]", "result": 268}, {"measurement": "TV Mean Day 14", "setting": "[5]", "result": 495}, {"measurement": "TV Mean Day 0", "setting": "[5]; baseline", "result": 107}]}]}
